Source: patent US8536178B2, “Pharmaceutical composition for preventing or treating diseases associated with beta-amyloid accumulation containing morpholin or piperazine based compounds having SO3H or COOH as active ingredient” (Korea Institute of Science and Technology, priority 2009, dated 2013)
Values belong to the compound of their own block, whether it stands above or below them.

What was measured:
accumulated Aβ40 = target: T1, accumulated Aβ40 (Homo sapiens, UniProt P05067); assay: Beta-amyloid fibril disaggregation activity by SDS-PAGE, Aβ40; assay type: biochemical; conditions: Aβ40 50 μM, compound 20 mM, 3rd and 7th day, photo-induced cross-linking, silver staining
T1 construct: beta-amyloids 40 and 42 consisting of 40 and 42 amino acids
T1 sequence (P05067 672-711 limits assumed): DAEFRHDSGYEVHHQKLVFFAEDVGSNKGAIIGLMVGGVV
Procedure: (§1) In order to measure the accumulated beta-amyloid disaggregation activity of a compound according to the present invention, the following experiment was performed using SDS-PAGE.
(§2) When peptides or proteins are subjected to electrophoresis on an SDS gel, the secondary structures of the proteins are broken. Thus, it is necessary to cross-link the proteins and immobilize their structures. It is achieved by a photo-induced cross-linking such that the structure of accumulated beta-amyloid may not be dismissed during electrophoresis on SDS gel. Specifically, a beta-amyloid stock solution was prepared in a DMSO solution such that Aβ40 or Aβ42 may have a concentration of 5 mM or 2.5 mM, and was […] by 10 times using distilled water to prepare Aβ40 and Aβ42 at a concentration of 500 μM and 250 μM, respectively. It was cultured at 37° C. for 7 to 10 days to prepare a sufficient amount of beta-amyloid aggregate. Subsequently, compounds of chemical formula 1a to 1e according to the present invention or distilled water were again added into each accumulated beta-amyloid to obtain 10-times diluted solutions, and then they were cultured at 37° C. for 7 days. Distilled water was used as a control group. The final concentration of the compound was 20 mM, and the final concentrations of beta-amyloid Aβ40 or Aβ42 were 50 μM and 25 μM, respectively. […]

[1] = tested on: HT-22 cells treated with Aβ40; assay: Cell viability (MTT) on beta-amyloid toxicity, Aβ40; assay type: cell-based, rat; conditions: HT-22, Aβ40 2 μM pre-treated with compound, 24 hours, untreated cells = 100%, FIG. 8 (a)
Procedure: (§3) In order to determine the cell survival rate of a compound according to the present invention on beta-amyloid toxicity, the following example was performed.
(§4) In order to obtain beta-amyloid aggregates, a beta-amyloid stock solution was prepared. The beta-amyloid stock solutions were prepared in a DMSO solution such that Aβ40 or Aβ42 might have a concentration of 5 mM and 2.5 mM, respectively, and diluted in distilled water by 10 times to prepare Aβ40 and Aβ42 at a final concentration of 500 μM and 250 μM, respectively. Distilled water added to each solution to culture a 10 times diluted beta-amyloid at 37° C. for 7 to 10 days. Subsequently, compounds of chemical formula 1a to 1e according to the present invention or distilled water were again added into each beta-amyloid to obtain 10-times diluted solutions, and then it was cultured at 37° C. for 7 days. Distilled water was used as a control group instead of the compound. […] The cytotoxicity of the reaction solutions on 0th, 3rd, and 7th days after addition of distilled water or the compound was measured using the following cell line.
(§5) HT-22, a neuronal cell line of a rat, was cultured in DMEM (Dulbecco's Modified Eagle's Medium) supplemented with 10% FBS (Fetal Bovine Serum) and 1% penicillin/streptomycin in an incubator of 37° C. and 5% CO2. […] 18 hours later, the optical absorption was determined at 570 nm by a microplate reader. […]

HT-22 cells = assay: Cytotoxicity of the compound alone (MTT); assay type: cell-based, rat; conditions: HT-22, without any treatment of beta-amyloid, untreated cells = 100%
Aβ42 fibril = target: T2, Aβ42 fibril (Homo sapiens, UniProt P05067); assay: Accumulated beta-amyloid disaggregation activity by thioflavin T (ThT) fluorescence intensity, Aβ42; assay type: biochemical; conditions: Aβ42 25 μM, compound 20 mM
T2 construct: beta-amyloids 40 and 42 consisting of 40 and 42 amino acids
T2 sequence (P05067 672-713 limits assumed): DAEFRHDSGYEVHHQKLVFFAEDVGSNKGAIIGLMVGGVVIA
Procedure: (§6) In order to measure the disaggregation activity of the beta-amyloid aggregate of a compound according to the present invention, the following experiment was performed using thioflavin T (ThT) fluorescence intensity.
(§7) Thioflavin T (ThT) is well mixed with fibril which is a beta-amyloid aggregate in a solution and tends to increase the fluorescence intensity as the concentration of fibril increases.
(§8) For aggregation of beta-amyloid, a beta-amyloid stock solution was prepared. The beta-amyloid stock solutions were prepared in a DMSO solution such that Aβ40 or Aβ42 might have a concentration of 5 mM and 2.5 mM, respectively, and diluted in distilled water by 10 times to prepare Aβ40 and Aβ42 at a final concentration of 500 μM and 250 μM, respectively. It was cultured at 37° C. for 7 to 10 days to prepare a sufficient amount of beta-amyloid aggregate. Subsequently, compounds of chemical formula 1a to 1e according to the present invention or distilled water were again added into each accumulated beta-amyloid to obtain 10-times diluted solutions, and then they were cultured at 37° C. for 7 days. Distilled water was used as a control group. The final concentration of the compound was 20 mM, and the final concentrations of beta-amyloid Aβ40 or Aβ42 were 50 μM and 25 μM, respectively. After distilled water or the compound was added, 25 μl of each reaction solution on 0th, 3rd, and 7th day was aliquoted into each well, into which was added 75 μl of thioflavin T (ThT) to have thioflavin T (ThT) at a concentration of 5 μM. It was cultured for additional 15 minutes, and then the fluorescence intensity of a half well 96 fluorescence microplate was measured by Envision 2103 multilabel reader, Perkin-Elmer. During the measurement of fluorescence intensity, the wavelengths of excitation and emission were 450 nm and 485 nm, respectively and the counting time was 0.5 sec. […]

Aβ40 fibril = target: T3, Aβ40 fibril (Homo sapiens, UniProt P05067); assay: Accumulated beta-amyloid disaggregation activity by thioflavin T (ThT) fluorescence intensity, Aβ40; assay type: biochemical; conditions: Aβ40 50 μM, compound 20 mM
T3 construct: beta-amyloids 40 and 42 consisting of 40 and 42 amino acids
T3 sequence (P05067 672-711 limits assumed): as the sequence (P05067 672-711 limits assumed) above
Procedure: as §6, §7, §8

[2] = target: T4, beta-amyloid 42 aggregate (Homo sapiens, UniProt P05067); assay: Beta-amyloid fibril disaggregation activity by electronic microscope, Aβ42; assay type: biochemical; conditions: Aβ42 25 μM, compound 20 mM, 3rd and 7th days, FIG. 7
T4 construct: beta-amyloids 40 and 42 consisting of 40 and 42 amino acids
T4 sequence (P05067 672-713 limits assumed): as the sequence (P05067 672-713 limits assumed) above
Procedure: (§9) In order to measure accumulated beta-amyloid disaggregation activity of a compound according to the present invention, the following experiment was performed using electronic microscope.
(§10) A beta-amyloid stock solution was prepared such that Aβ40 or Aβ42 might have a concentration of 5 mM and 2.5 mM, respectively, and diluted in distilled water by 10 times to prepare Aβ40 and Aβ42 at a final concentration of 500 μM and 250 μM, respectively. It was cultured at 37° C. for 7 to 10 days to prepare a sufficient amount of beta-amyloid aggregate. Subsequently, compounds of chemical formula 1a to 1e according to the present invention or distilled water were again added into each accumulated beta-amyloid to obtain 10-times diluted solutions, and then it was cultured at 37° C. for 7 days. Distilled water was used as a control group. The final concentration of the compound was 20 mM, and the final concentrations of beta-amyloid Aβ40 or Aβ42 were 50 μM and 25 μM, respectively. Subsequently, a compound of chemical formula 1a was added, and then the mixture was cultured at 37° C. for 7 days. From each of the reaction solutions on 0th, 3rd, and 7th days after addition of distilled water or the compound, the accumulations and disaggregation degrees of accumulated beta-amyloid were observed using analytical transmission electron microscope. […]

accumulated Aβ42 = target: T5, accumulated Aβ42 (Homo sapiens, UniProt P05067); assay: Beta-amyloid fibril disaggregation activity by SDS-PAGE, Aβ42; assay type: biochemical; conditions: Aβ42 25 μM, compound 20 mM, 3rd and 7th day, photo-induced cross-linking, silver staining
T5 construct: beta-amyloids 40 and 42 consisting of 40 and 42 amino acids
T5 sequence (P05067 672-713 limits assumed): as above
Procedure: as §1, §2

[3] = tested on: HT-22 cells treated with Aβ42; assay: Cell viability (MTT) on beta-amyloid toxicity, Aβ42; assay type: cell-based, rat; conditions: HT-22, Aβ42 1 μM pre-treated with compound, 24 hours, untreated cells = 100%, FIG. 8 (b)
Procedure: as §3, §4, §5

[4] = target: T6, beta-amyloid 40 aggregate (Homo sapiens, UniProt P05067); assay: Beta-amyloid fibril disaggregation activity by electronic microscope, Aβ40; assay type: biochemical; conditions: Aβ40 50 μM, compound 20 mM, 3rd and 7th days, FIG. 6
T6 construct: beta-amyloids 40 and 42 consisting of 40 and 42 amino acids
T6 sequence (P05067 672-711 limits assumed): as the sequence (P05067 672-711 limits assumed) above
Procedure: as §9, §10

Aβ40 = target: T7, Aβ40 (Homo sapiens, UniProt P05067); assay: Beta-amyloid accumulation inhibitory activity by thioflavin T (ThT) fluorescence intensity; assay type: biochemical; conditions: Aβ40 50 μM, compound 20 mM (test compound: chemical formula 1a), 37° C., 0th to 7th day, FIG. 1
T7 construct: beta-amyloids 40 and 42 consisting of 40 and 42 amino acids
T7 sequence (P05067 672-711 limits assumed): as above
Procedure: In order to measure the beta-amyloid accumulation inhibitory activity of a compound according to the present invention, the following experiment was performed using thioflavin T (ThT) fluorescence intensity.
Thioflavin T (ThT) is well mixed with fibril which is a beta-amyloid aggregate in a solution and tends to increase the shifted fluorescence intensity as the concentration of fibril increases.
A solution was prepared in a DMSO solution such that Aβ40 might have a concentration of 5 mM, and diluted in a compound of chemical formula 1a by 100 times to prepare Aβ40 at a final concentration of 50 μM. The concentration of the compound was 20 mM. Tramiprosate was used as a control group. Tramiprosate is a compound known to treat Alzheimer's disease and related diseases by inhibiting the accumulation of beta-amyloid (F. Gervais, J. et al. (2007)). Subsequently, it was cultured at 37° C. for 7 days. […] It was cultured for additional 15 minutes, and then the fluorescence intensity of a half well 96 fluorescence microplate was measured by Envision 2103 multilabel reader, Perkin-Elmer. During the measurement of fluorescence intensity, the wavelengths of excitation and emission were 450 nm and 485 nm, respectively and the counting time was 0.5 sec.

Structure (SMILES): O=S(=O)(O)CCCN1CCN(CCO)CC1 [chemical formula 1a]
disaggregation of accumulated beta-amyloid into monomers (SDS-PAGE band near 3.5 kD) (accumulated Aβ40): disaggregated into monomers
cell viability [1]: ≥ 95%
cell viability, compound only (HT-22 cells): ≥ 95%
course of ThT fluorescence intensity over time (Aβ42 fibril; 0th, 3rd, 7th day, FIG. 2 (b)): increased over time
course of ThT fluorescence intensity over time (Aβ40 fibril; 0th, 3rd, 7th day, FIG. 2 (a)): increased over time
beta-amyloid fibrils in transmission electron microscope images [2]: no beta-amyloid fibrils appeared on 3rd and 7th days
disaggregation of accumulated beta-amyloid into monomers (SDS-PAGE band near 3.5 kD) (accumulated Aβ42): disaggregated into monomers
cell viability [3]: ≥ 95%
beta-amyloid fibrils in transmission electron microscope images [4]: no beta-amyloid fibrils appeared on 3rd and 7th days

ThT fluorescence intensity compared to initially prepared aggregates (prefibrils) (Aβ42 fibril; 37° C., up to 7 days): increased
ThT fluorescence intensity compared to initially prepared aggregates (prefibrils) (Aβ40 fibril; 37° C., up to 7 days): increased
Structure (SMILES): O=S(=O)(O)CC(O)CN1CCN(CCO)CC1 (centres unmarked) [chemical formula 2, HEPPSO]
disaggregation activity to the beta-amyloid aggregate (ThT) (Aβ42 fibril): does not exhibit any disaggregation activity
disaggregation activity to the beta-amyloid aggregate (ThT) (Aβ40 fibril): does not exhibit any disaggregation activity

increase of ThT fluorescence intensity (Aβ40): about 3.5 times
Structure (SMILES): NCCCS(=O)(=O)O [tramiprosate, Tramiprosate]
